# Test results as given in patent publication US9326539B2, “Compositions comprising dietary fat complexers and methods for their use” (Soho Flordis International Pty. Ltd., priority 2002, dated 2016).
# Columns and labels:
# [1] = Wistar rat low fat/high fat diet feeding study: food and energy intake, body weight, body composition; format: in vivo, Wistar rats; details: 6 week study, α-cyclodextrin:fat 1:10 w/w in diet
# Excerpt: To examine the effect of α-cyclodextrin on body weight gain and plasma lipid levels in animals fed high fat and low fat diets, we conducted a short-term feeding study using Wistar rats. Forty-two male Wistar rats, 10 weeks old, were obtained from Harlan-Sprague Dawley. Following a one-week adaptation while being fed the control low fat diet (LF), they were divided equally into two groups, one low-fat (LF) diet and the other high-fat (HF) diet. These two groups were further divided into two subgroups. Two groups were fed the LF or HF diet and served as controls for the other two test groups which were fed the LF or HF diet containing α-cyclodextrin, wherein the amount of α-cyclodextrin was such that the ratio of α-cyclodextrin to fat in the food was 1:10 w/w. […]
# If this were the case it would be difficult to imagine being able to feed enough of the α-cyclodextrin to an animal in order to complex sufficient triglycerides to make a significant difference in body weight as triglycerides and α-cyclodextrin have similar molecular weights. However, from the data disclosed herein wherein e.g., a diet comprising 4% α-cyclodextrin and 40% fat inhibits weight gain and reduces body fat mass, as the molecular weights are very similar, we have calculated that one α-cyclodextrin molecule can complex approximately nine molecules of triglyceride, the equivalent of 27 free fatty acids. […]
# [2] = in vitro study of vegetable oil, water and cyclodextrin: band of wax-like complex; format: physicochemical; details: vegetable oil 4 g, water 6 g, varying amounts of cyclodextrin (100-2,000 mg), centrifuged
# Experimental: FIG. 9A-9C depicts the results of an in vitro study of vegetable oil (4 g), water (6 g) (with added food coloring for contrast) and varying amounts of (A) α-cyclodextrin (100-2,000 mg, right to left), (B) β-cyclodextrin or (C) γ-cyclodextrin. A band of “wax-like” material layered between the oil and aqueous phases is apparent in the tubes. […] Note the increasing size (right to left) of a white layer of un-reacted α-cyclodextrin in the bottom of the tubes. This material is displaced from solution by either the oil or the α-cyclodextrin-oil complex. These tubes were centrifuged in order to improve the definition of the layers. The “wax-like” complex is of such a consistency that all of the tubes except for the furthest two to the right can be inverted without leakage of the aqueous phase around the complex.
# FIGS. 9A-9C depict the results of an in vitro study of vegetable oil (4 g), water (6 g) (with added food coloring for contrast) and varying amounts of (A) α-cyclodextrin (100-2,000 mg, right to left), (B) β-cyclodextrin or (C) γ-cyclodextrin. A band of “wax-like” material layered between the oil and aqueous phases is apparent in the tubes. […] Note the increasing size (right to left) of a white layer of un-reacted α-cyclodextrin in the bottom of the tubes. This material is displaced from solution by either the oil or the α-cyclodextrin-oil complex. These tubes were centrifuged in order to improve the definition of the layers. The “wax-like” complex is of such a consistency that all of the tubes in 9A except for the furthest two to the right can be inverted without leakage of the aqueous phase around the complex.
# Thus one would not have expected α-cyclodextrin to complex triglyceride molecules because the molecules would not fit within the pore of the α α-cyclodextrin. […] The white substance in the bottom of the tubes is precipitated cyclodextrin.
# [3] = Wistar rat feeding study: fecal fat content (total lipid of feces); format: in vivo, Wistar rats; details: collected feces, final three days
# Excerpt: The rats were housed as pairs for five weeks prior to being placed in individual metabolic cages for the sixth week of the study. All of the rats' feces were collected during the final three days of the study. At the end of the sixth week of the study period the rats were sacrificed by decapitation after a brief exposure to carbon dioxide gas. Trunk blood and the livers were collected from each animal. The rest of the body was eviscerated and all visible fat from the internal cavity was collected and weighed. The carcass was frozen for body composition analysis at a later date.
# Total lipid determinations were performed on the collected feces using standard techniques Folch et al. J Biol. Chem 226: 497-509 (1957) incorporated by reference. […] On average this increase was approximately 25%. […] The latter observation was confirmed by visual inspection of the feces.
# [4] = volunteers fed high fat breakfast: serum triglyceride levels; format: in vivo, human
# Experimental: To determine the effect of α-cyclodextrin on triglyceride levels, eight volunteers were fed on two consecutive days a two-egg cheese (54 g) omelet and a milkshake containing a total of 47 g of fat after an overnight fast. On the first day the meal also contained approximately 5 g of α-cyclodextrin. Blood samples (10 ml) from each volunteer taken via an in-dwelling venous catheter immediately prior the meal (zero-time) and at 1, 2 and 3 hours after the meal was consumed and were assayed for serum triglyceride levels. The zero-time sample were used as the baseline to calculate the percentage change in blood serum triglyceride levels of the human volunteers at one, two and three hours. FIG. 7 illustrates the data collected from the volunteers.
# FIG. 7 also contains data from three of the volunteers who had partaken in an earlier two-hour study with a smaller meal (denoted “*”).
# [5] = cited from earlier work
structure (smiles),measurement,setting,value
OC[C@H]1O[C@@H]2O[C@H]3[C@H](O)[C@@H](O)[C@@H](O[C@H]4[C@H](O)[C@@H](O)[C@@H](O[C@H]5[C@H](O)[C@@H](O)[C@@H](O[C@H]6[C@H](O)[C@@H](O)[C@@H](O[C@H]7[C@H](O)[C@@H](O)[C@@H](O[C@H]1[C@H](O)[C@H]2O)O[C@@H]7CO)O[C@@H]6CO)O[C@@H]5CO)O[C@@H]4CO)O[C@@H]3CO [α-cyclodextrin],rate of body weight gain,[1],gained weight at a slower rate relative to their respective control groups
same,band of wax-like material (complexed fat) between oil and aqueous phases,[2],maximum in the tube labeled 10% (400 mg α-cyclodextrin/4 g oil)
same,visual inspection of feces,[3],no indication of diarrhea
same,increase in serum triglyceride levels after meal,"[4]; eight volunteers, meal with 47 g fat and approximately 5 g α-cyclodextrin, 1, 2 and 3 hours, p<0.08",less
same,change in triglyceride levels after meal,"[4]; three volunteers, earlier two-hour study with smaller meal",less
same,weight gain of rats versus control diet,"[5]; JP 05-298849, diet with 16% a-cyclodextrin, or 1% linolenic acid, or 14% α-cyclodextrin and 2% linolenic acid",gain weight approximately the same as rats fed a control diet
same,body weight gain of rats versus control diets,"[5]; Kaewprasert et al. 2001, 5% α-cyclodextrin diet, cyclodextrin:fat about 1:1.4",not significantly different
same,weight gain of rats,"[5]; S60-149752, diet with 14% w/w α-cyclodextrin, or 14% w/w α-cyclodextrin and 0.5% w/w linolenic acid",little effect on weight gain
